Experimental data as given in paper PMC5640562, “Synthesis and anticancer activity of novel quinazolinone-based rhodanines” (Chemistry Central Journal, 2017).
Each block holds one molecule with its values, some of them ahead of it.

How the values were obtained:
HT-1080 cells [1] = test: MTT cytotoxicity assay, HT-1080 fibrosarcoma cells; assay type: cell-based, human; conditions: 3 days incubation, mean of three independent experiments (± standard deviation)
Description: (§1) The compounds were tested for their cytotoxic activity on a solid tumor cell line, i.e. HT-1080 originating from a fibrosarcoma (American Type Culture Collection; ATCC, Rockville, MD, USA), and on two leukemia cell lines, i.e. the HL-60 human promyelocytic leukemia (European Collection of Animal Cell Cultures; ECACC, Salisbury, UK) and the K-562 human chronic myelogenous leukemia (ATCC). Furthermore, the human skin fibroblast strain AG01523 (Coriell Institute for Medical Research, Camden, NJ, USA) was also used as normal control. Adherent cells were routinely cultured in Dulbecco’s […] (DMEM), and leukemia cells in RPMI 1640, in an environment of 5% CO2, 85% humidity, and 37 °C. All media were supplemented with penicillin (100 U/ml), streptomycin (100 μg/ml) (media and antibiotics from Biochrom KG, Berlin, Germany), and 10% fetal bovine serum (Life Technologies Europe BV, Thessaloniki, Greece). Adherent cells were subcultured using a trypsin (0.25%; Life Technologies Europe BV)—citrate (0.30%; Sigma, St. Louis, MO, USA) solution. The cytotoxicity assay was performed by a modification of the MTT method. Briefly, the cells were plated in flat-bottomed 96-well microplates at a density of 5000 cells/well, and incubated overnight before the addition of serial dilutions of the test compounds. The cells were incubated with the compounds or the corresponding vehicle (DMSO) concentrations for 3 days. Then, the medium was replaced with MTT (Sigma) in serum-free, phenol-red-free DMEM (1 mg/ml). After incubation for 4 h, the MTT formazan was solubilized in 2-propanol, and the optical density was measured using a FLUOstar Optima (BMG Labtech, Ortenberg, Germany) microplate reader at a wavelength of 550 nm (reference wavelength 660 nm). Doxorubicin hydrochloride (Sigma) was included in the experiments as positive control. The results represent the mean of three independent experiments and are expressed as IC50 [42].

[2] = MTT cytotoxicity assay, normal skin fibroblast strain AG01523; assay type: cell-based; conditions: AG01523 normal skin fibroblasts, normal human skin fibroblasts, 3 days incubation, mean of three independent experiments (± standard deviation)
Description: as §1

HL-60 cells = test: MTT cytotoxicity assay, HL-60 promyelocytic leukemia cells; assay type: cell-based, human; conditions: 3 days incubation, mean of three independent experiments (± standard deviation)
Description: as §1

K-562 cells = test: MTT cytotoxicity assay, K-562 chronic myelogenous leukemia cells; assay type: cell-based, human; conditions: 3 days incubation, mean of three independent experiments (± standard deviation)
Description: as §1

HT-1080 cells [3] = test: Flow cytometric analysis of DNA content (cell cycle phase distribution); assay type: cell-based, human; conditions: 48 h, flow cytometry of DNA content (not shown)
AG01523 fibroblasts = test: MTT cytotoxicity assay, normal skin fibroblast strain AG01523; assay type: cell-based; conditions: normal human skin fibroblasts, 3 days incubation, mean of three independent experiments (± standard deviation)
Description: as §1

SMILES: COc1cccc2c1C(=O)c1c(O)c3c(c(O)c1C2=O)C[C@@](O)(C(=O)CO)C[C@@H]3O[C@H]1C[C@H](N)[C@H](O)[C@H](C)O1 [Doxorubicin, reference compound]
IC50 (HT-1080 cells [1]; Homo sapiens, HT-1080, 72 h): 0.012 µM
IC50 at 3 days [2]: 0.875 µM
IC50 (HL-60 cells; Homo sapiens, HL-60, 72 h): 0.011 µM
IC50 (K-562 cells; Homo sapiens, K562, 72 h): 0.212 µM

SMILES: COc1cc(C=C2SC(=S)NC2=O)ccc1OCc1nc2ccccc2c(=O)n1-c1ccc(Br)cc1 [Compound 45, 5-{4-[(3-(4-Bromophenyl)-4-oxo-3,4-dihydroquinazolin-2-yl)methoxy]-3-methoxybenzylidene}-2-thioxothiazolidin-4-one]
IC50 (HT-1080 cells [1]; Homo sapiens, HT-1080, 72 h): 8.7 µM
IC50 at 3 days [2]: > 100 µM
Cell cycle phase distribution (HT-1080 cells [3]): S-phase arrest
IC50 HL-60 cytotoxicity (HL-60 cells): low micromolar range
IC50 (HL-60 cells; Homo sapiens, HL-60, 72 h): 1.2 µM
IC50 K-562 cytotoxicity (K-562 cells): low micromolar range
IC50 (K-562 cells; Homo sapiens, K562, 72 h): 1.5 µM

SMILES: COc1cc(C=C2SC(=S)NC2=O)ccc1OCc1nc2ccccc2c(=O)n1-c1ccc(C(F)(F)F)cc1 [Compound 47]
IC50 (HT-1080 cells [1]): 15.8 µM
IC50 (AG01523 fibroblasts): > 100 µM
IC50 (HL-60 cells): 2.6 µM
IC50 HL-60 cytotoxicity (HL-60 cells): low micromolar range
IC50 (K-562 cells): 5.1 µM
IC50 K-562 cytotoxicity (K-562 cells): low micromolar range

SMILES: O=C1NC(=S)SC1=Cc1ccc(OCc2nc3ccccc3c(=O)n2-c2ccccc2)cc1 [Compound 31, 5-{4-[(3-Phenyl-4-oxo-3,4-dihydroquinazolin-2-yl)methoxy]benzylidene}-2-thioxothiazolidin-4-one]
IC50 (HT-1080 cells [1]; Homo sapiens, HT-1080, 72 h): 42.9 µM
melting point: 230 to 232 °C

SMILES: Cc1cccc(-n2c(COc3ccc(C=C4SC(=S)NC4=O)cc3)nc3ccccc3c2=O)c1 [Compound 39, 5-{4-[(3-(3-Methylphenyl)-4-oxo-3,4-dihydroquinazolin-2yl)methoxy]benzylidene}-2-thioxothiazolidin-4-one]
IC50 (HT-1080 cells [1]; Homo sapiens, HT-1080, 72 h): 47.5 µM
melting point: 165 to 168 °C

SMILES: COc1cc(C=C2SC(=S)NC2=O)ccc1OCc1nc2ccccc2c(=O)n1-c1ccc(Cl)cc1 [Compound 43, 5-{4-[(3-(4-Chlorophenyl)-4-oxo-3,4-dihydroquinazolin-2-yl)methoxy]-3-methoxybenzylidene}-2-thioxothiazolidin-4-one]
IC50 (HT-1080 cells [1]; Homo sapiens, HT-1080, 72 h): 10.2 µM
IC50 at 3 days [2]: > 100 µM
Cell cycle phase distribution (HT-1080 cells [3]): S-phase arrest
IC50 HL-60 cytotoxicity (HL-60 cells): low micromolar range
IC50 (HL-60 cells; Homo sapiens, HL-60, 72 h): 5.1 µM
IC50 K-562 cytotoxicity (K-562 cells): low micromolar range
IC50 (K-562 cells; Homo sapiens, K562, 72 h): 4.5 µM

SMILES: O=C1NC(=S)SC1=Cc1ccc(OCc2nc3ccccc3c(=O)n2-c2ccc(F)cc2)cc1 (hydrate or solvate) [Compound 32, 5-{4-[(3-(4-Fluorophenyl)-4-oxo-3,4-dihydroquinazolin-2-yl)methoxy]benzylidene}-2-thioxothiazolidin-4-one]
melting point: 231 to 233 °C (dec.)

SMILES: O=C1NC(=S)SC1=Cc1ccc(OCc2nc3ccccc3c(=O)n2-c2cccc(Br)c2)cc1 (hydrate or solvate) [Compound 36, 5-{4-[(3-(3-Bromophenyl)-4-oxo-3,4-dihydroquinazolin-2-yl)methoxy]benzylidene}-2-thioxothiazolidin-4-one]
melting point: 252 to 254 °C

Further lines, with some results ahead:

melting point: 147 to 150 °C
SMILES: COc1cc(C=C2SC(=S)NC2=O)ccc1OCc1nc2ccccc2c(=O)n1-c1cccc(Cl)c1 [Compound 44, 5-{4-[(3-(3-Chlorophenyl)-4-oxo-3,4-dihydroquinazolin-2-yl)methoxy]-3-methoxybenzylidene]-2-thioxothiazolidin-4-one]
IC50 (HT-1080 cells [1]; Homo sapiens, HT-1080, 72 h): 28.4 µM

melting point: 172 to 175 °C
SMILES: COc1cc(C=C2SC(=S)NC2=O)ccc1OCc1nc2ccccc2c(=O)n1-c1ccc(C)cc1 (hydrate or solvate) [Compound 48, 5-{4-[(3-(4-Methylphenyl)-4-oxo-3,4-dihydroquinazolin-2-yl)methoxy]-3-methoxybenzylidene}-2-thioxothiazolidin-4-one]

melting point: 163 to 166 °C
SMILES: COc1cc(C=C2SC(=S)NC2=O)ccc1OCc1nc2ccccc2c(=O)n1-c1ccc(F)cc1 [Compound 42, 5-{4-[(3-(4-Fluorophenyl)-4-oxo-3,4-dihydroquinazolin-2-yl)methoxy]-3-methoxybenzylidene}-2-thioxothiazolidin-4-one]
IC50 (HT-1080 cells [1]; Homo sapiens, HT-1080, 72 h): 35.8 µM

melting point: 190 to 192 °C (dec.)
SMILES: COc1ccc(-n2c(COc3ccc(C=C4SC(=S)NC4=O)cc3)nc3ccccc3c2=O)cc1 [Compound 40, 5-{4-[(3-(4-Methoxyphenyl)-4-oxo-3,4-dihydroquinazolin-2-yl)methoxy]benzylidene}-2-thioxothiazolidin-4-one]
IC50 (HT-1080 cells [1]; Homo sapiens, HT-1080, 72 h): 36.4 µM
